ChEMBL document CHEMBL1201862, “PubChem BioAssay data set” (2004)
Calls of active or inactive are those of the source. Where a SMILES comes first, the peptide text is derived from it. The star is where a group is joined. Boc = CC(C)(C)OC(=O)*; OtBu = CC(C)(C)O*

Legend:
[1] = biological target: T1, Heat shock factor protein 1 (Mus musculus, UniProt P38532); experiment: HSF1 potentiators in luciferase reporter cells, confirmation, cell-based, NIH3T3, luminescence, dose retest (AID 435004); type: functional;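 also: stress induced by proteasome inhibitor MG132 added 30 min after compound; luciferase reporter driven by HSF1 response element in NIH3T3 cells; actives raise luminescence as potentiators of the MG132 stress response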
T1 sequence (P38532 whole entry): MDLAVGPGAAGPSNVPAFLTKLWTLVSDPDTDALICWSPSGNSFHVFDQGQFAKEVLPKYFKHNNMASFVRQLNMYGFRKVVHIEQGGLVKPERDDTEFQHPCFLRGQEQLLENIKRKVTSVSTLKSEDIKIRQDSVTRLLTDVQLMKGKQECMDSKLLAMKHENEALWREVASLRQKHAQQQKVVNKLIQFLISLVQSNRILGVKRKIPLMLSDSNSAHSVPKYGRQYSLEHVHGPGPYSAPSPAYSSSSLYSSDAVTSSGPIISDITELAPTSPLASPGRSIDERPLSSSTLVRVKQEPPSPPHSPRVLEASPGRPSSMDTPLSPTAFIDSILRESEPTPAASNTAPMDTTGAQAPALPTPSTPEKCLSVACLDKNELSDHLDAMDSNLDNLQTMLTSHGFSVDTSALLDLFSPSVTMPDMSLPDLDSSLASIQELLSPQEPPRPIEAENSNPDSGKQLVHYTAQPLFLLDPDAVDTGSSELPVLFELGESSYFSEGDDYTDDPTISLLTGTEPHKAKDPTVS

[2] = biological target: T2, Polyadenylate-binding protein 1 (Homo sapiens, UniProt P11940); experiment: PABP1 MLLE–PAM2 binding inhibitor potency, dose response, biochemical, fluorescence polarization, FITC-PAM2 peptide (AID 602259); type: functional; details: read-out: IC50_Mean
[3] = biological target: T2, Polyadenylate-binding protein 1; experiment: PABP1 MLLE–PAM2 interaction inhibitors, dose response, miRNA deadenylation inhibitor project, biochemical, fluorescence polarization, Cy5-PAM2 peptide, secondary (AID 602260); type: functional; details: read-out: IC50_Mean
[4] = biological target: T3, Rac GTPase-activating protein 1 (Homo sapiens, UniProt Q9H0H5); experiment: MgcRacGAP GTPase-activating activity inhibitors, confirmation, biochemical, ADP Hunter fluorescence, primary and confirmatory (AID 624330); type: functional
T3 sequence (Q9H0H5 whole entry): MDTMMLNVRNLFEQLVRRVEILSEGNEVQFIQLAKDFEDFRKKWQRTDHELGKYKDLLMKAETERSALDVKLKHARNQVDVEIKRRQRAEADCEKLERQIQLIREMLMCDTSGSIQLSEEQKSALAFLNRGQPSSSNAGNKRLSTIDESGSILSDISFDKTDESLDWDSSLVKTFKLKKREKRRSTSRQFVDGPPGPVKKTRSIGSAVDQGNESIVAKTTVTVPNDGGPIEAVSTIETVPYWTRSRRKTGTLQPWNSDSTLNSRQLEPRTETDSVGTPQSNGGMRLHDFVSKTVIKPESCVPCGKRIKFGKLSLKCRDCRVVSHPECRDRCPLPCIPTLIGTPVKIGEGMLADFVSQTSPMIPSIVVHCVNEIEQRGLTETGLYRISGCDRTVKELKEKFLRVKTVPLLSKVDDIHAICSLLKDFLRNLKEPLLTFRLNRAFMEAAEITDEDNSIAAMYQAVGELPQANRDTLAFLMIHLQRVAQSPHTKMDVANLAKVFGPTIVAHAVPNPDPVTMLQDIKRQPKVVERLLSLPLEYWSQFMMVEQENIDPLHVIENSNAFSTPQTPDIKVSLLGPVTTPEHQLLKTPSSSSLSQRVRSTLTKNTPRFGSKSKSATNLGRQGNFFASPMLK

INS1 = experiment: beta cell apoptosis inhibitors, cytokine rescue, dose response, luminescence, retest (AID 449756); type: functional, cell-based; details: Rattus norvegicus;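 also: cell death triggered by IL-1 beta plus TNF-alpha plus IFN-gamma mixture; protective hits raise ATP signal compared with cytokine alone wells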
Cytochrome P450 2C19 = Cytochrome P450 2C19 (Homo sapiens, UniProt P33261); experiment: Cytochrome panel assay with activity outcomes. Panel member name: p450-cyp2c19 Compounds with AC50 equal or less than 10 uM are considered active; type: functional; details: read-out: AC50
Cytochrome P450 3A4 = Cytochrome P450 3A4 (Homo sapiens, UniProt P08684);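 also: CYP3A4 tested as one member of a cytochrome P450 panel screen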
Cytochrome P450 1A2 = biological target: T4, Cytochrome P450 1A2 (Homo sapiens, UniProt P05177);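 also: PubChem cytochrome P450 panel assay, CYP1A2 panel member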
T4 sequence (P05177 whole entry): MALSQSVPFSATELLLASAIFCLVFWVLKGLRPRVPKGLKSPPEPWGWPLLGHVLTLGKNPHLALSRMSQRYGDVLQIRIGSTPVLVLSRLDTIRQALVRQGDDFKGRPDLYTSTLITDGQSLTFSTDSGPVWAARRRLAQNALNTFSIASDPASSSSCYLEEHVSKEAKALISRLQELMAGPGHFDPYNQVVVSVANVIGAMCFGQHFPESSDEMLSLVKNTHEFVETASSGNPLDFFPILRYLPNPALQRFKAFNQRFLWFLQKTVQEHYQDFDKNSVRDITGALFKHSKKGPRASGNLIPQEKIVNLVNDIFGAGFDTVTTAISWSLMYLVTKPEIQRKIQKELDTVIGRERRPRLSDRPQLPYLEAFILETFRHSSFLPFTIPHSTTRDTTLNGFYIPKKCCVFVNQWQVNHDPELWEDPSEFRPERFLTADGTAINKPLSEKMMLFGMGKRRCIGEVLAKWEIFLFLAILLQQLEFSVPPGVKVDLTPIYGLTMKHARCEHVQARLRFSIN

[5] = tested on: Streptococcus sp. 'group A'; experiment: growth inhibition of control SK(-) GAS strain, dose response, counter-screen for streptokinase expression inhibitor project, luminescence, kanamycin, BacTiterGlo, confirmation (AID 1900); type: functional, organism-based
Streptokinase A = biological target: T5, Streptokinase A (Streptococcus pyogenes serotype M1, UniProt P10520); experiment: S. pyogenes streptokinase expression inhibitors, potency, dose response, plasminogen activation absorbance, OD405 (AID 1914); type: functional, Streptococcus pyogenes M1 GAS;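 also: secreted streptokinase activity via plasminogen activation per viability signal from cell pellet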
T5 sequence (P10520 whole entry): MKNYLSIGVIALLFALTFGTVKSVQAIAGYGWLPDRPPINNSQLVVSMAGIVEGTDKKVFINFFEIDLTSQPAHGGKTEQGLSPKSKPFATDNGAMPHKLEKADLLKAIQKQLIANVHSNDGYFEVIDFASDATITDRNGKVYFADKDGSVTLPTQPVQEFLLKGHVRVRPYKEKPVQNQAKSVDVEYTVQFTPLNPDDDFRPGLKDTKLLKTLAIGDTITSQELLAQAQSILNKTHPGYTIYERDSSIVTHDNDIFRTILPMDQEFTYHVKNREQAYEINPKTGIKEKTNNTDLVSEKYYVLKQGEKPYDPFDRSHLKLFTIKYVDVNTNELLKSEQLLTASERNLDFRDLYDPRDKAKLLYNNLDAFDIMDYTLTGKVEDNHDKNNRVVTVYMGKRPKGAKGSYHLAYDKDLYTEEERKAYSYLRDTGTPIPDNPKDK

Streptococcus = experiment: Group A Streptococcus viability loss, dose response, counter-screen for streptokinase expression inhibitor project, luminescence, BacTiterGlo (AID 1915); type: functional, organism-based;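 also: potency for reduction of bacterial viability or growth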
[6] = Luminescence Cell-Based Dose Retest to Confirm Inhibitors of Cancer Stem Cells. [Related pubchem assays (depositor defined):AID2717, AID2721]; type: functional; details: Homo sapiens

T2 sequence (P11940 whole entry): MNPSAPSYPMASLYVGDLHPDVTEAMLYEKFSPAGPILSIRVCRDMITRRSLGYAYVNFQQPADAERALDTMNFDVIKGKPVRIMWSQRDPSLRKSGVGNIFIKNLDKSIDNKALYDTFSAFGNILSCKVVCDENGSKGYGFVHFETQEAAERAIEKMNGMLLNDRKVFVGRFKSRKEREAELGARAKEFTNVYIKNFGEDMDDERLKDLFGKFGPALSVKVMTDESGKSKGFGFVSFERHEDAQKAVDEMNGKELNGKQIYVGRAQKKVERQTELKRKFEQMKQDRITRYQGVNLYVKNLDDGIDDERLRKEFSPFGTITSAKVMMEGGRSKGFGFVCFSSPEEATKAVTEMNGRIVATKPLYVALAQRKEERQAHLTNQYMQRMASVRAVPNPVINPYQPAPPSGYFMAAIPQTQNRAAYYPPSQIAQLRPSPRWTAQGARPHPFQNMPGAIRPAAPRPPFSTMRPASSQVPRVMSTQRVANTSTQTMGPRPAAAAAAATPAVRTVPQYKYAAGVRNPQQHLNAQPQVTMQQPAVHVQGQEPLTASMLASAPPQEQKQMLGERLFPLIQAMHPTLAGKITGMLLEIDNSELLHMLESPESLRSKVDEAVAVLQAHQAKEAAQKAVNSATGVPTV
Chain of Cytochrome P450 2C19 (P33261 whole entry): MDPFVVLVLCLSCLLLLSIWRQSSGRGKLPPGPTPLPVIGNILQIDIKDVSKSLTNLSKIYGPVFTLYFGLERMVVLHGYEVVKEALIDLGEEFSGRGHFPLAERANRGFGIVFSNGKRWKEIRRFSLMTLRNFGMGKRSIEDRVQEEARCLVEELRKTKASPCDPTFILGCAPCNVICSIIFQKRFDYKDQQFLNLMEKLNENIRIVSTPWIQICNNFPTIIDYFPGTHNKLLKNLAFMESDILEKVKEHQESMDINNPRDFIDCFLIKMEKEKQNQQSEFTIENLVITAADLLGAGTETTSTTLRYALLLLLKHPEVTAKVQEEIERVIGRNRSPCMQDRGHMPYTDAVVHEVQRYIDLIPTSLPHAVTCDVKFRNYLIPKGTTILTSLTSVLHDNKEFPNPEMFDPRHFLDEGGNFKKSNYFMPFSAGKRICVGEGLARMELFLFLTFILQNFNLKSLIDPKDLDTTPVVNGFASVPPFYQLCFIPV
Chain of Cytochrome P450 3A4 (P08684 whole entry): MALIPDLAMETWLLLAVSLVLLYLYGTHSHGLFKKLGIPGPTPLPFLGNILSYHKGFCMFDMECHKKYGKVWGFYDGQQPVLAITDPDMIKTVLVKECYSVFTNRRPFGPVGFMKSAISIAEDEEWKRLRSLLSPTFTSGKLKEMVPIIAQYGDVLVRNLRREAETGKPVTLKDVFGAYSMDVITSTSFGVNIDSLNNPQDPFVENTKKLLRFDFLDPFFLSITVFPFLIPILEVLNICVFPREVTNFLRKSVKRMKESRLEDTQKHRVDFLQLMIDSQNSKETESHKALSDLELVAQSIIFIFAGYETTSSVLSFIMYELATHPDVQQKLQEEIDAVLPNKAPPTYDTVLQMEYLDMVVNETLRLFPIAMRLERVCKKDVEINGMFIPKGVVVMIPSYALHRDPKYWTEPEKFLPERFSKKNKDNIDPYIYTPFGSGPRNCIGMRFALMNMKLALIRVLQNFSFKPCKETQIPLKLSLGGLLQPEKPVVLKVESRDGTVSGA

## N#CC(CO)(Cc1ccc(OC(F)F)cc1)c1nc2ccccc2[nH]1 (stereo not given)
[1]
  EC50: > 260 µM (inactive)

## COc1ccc(CCNC(=O)c2sc(=S)n(C)c2N)cc1
[2]
  IC50: > 66 µM (inactive)
[3]
  IC50: > 66 µM (inactive)

## O=C(Cc1ccc([N+](=O)[O-])cc1)N1N=C(C2CC2)CC1(O)C(F)(F)F (stereo not given)
[1]
  EC50: > 260 µM (inactive)

## COc1ccccc1NC(=O)Cc1csc(N=C(S)Nc2ccccc2)n1
[2]
  IC50: > 66 µM (inactive)
[3]
  IC50: > 66 µM (inactive)

## CCN(CC)C(=O)Oc1ccc(Br)cc1C(=O)Nc1ccc(F)cc1F
[1]
  EC50: > 260 µM (inactive)

## Cc1ccc(-c2cc(C(F)(F)F)c(C#N)c(SCC(=O)O)n2)cc1
[1]
  EC50: > 260 µM (inconclusive)

## CN(C(=O)CCN1C(=O)/C(=C/c2ccccc2F)SC1=S)C1CCS(=O)(=O)C1 (stereo not given)
[2]
  IC50: > 66 µM (inactive)
[3]
  IC50: > 66 µM (inactive)

## Cn1c(SCc2ccccc2C#N)nc2ccccc2c1=O
[1]
  EC50: > 260 µM (inactive)

## CC(C)[C@H](N[C@@H](C)c1ccccc1)c1c(O)ccc2ccccc12
[4]
  IC50: 16.8 µM (active)

## Cc1ccc(OC(=O)c2ccc(C)c(C)c2)cn1
[1]
  EC50: > 260 µM (inactive)

## COc1ccc2cc(C(c3nnnn3C3CCCC3)N3CCc4ccccc4C3)c(O)nc2c1 (stereo not given)
[2]
  IC50: > 66 µM (inactive)
[3]
  IC50: > 66 µM (inactive)

## CCOCCCN=C(S)N1CCN(Cc2ccc3c(c2)OCO3)CC1
[4]
  IC50: 152 µM (active)

## Nc1cc(Br)c(N)c(Br)c1
[4]
  IC50: 13.5 µM (active)

## O=C(NC1CCCC1)c1cc(COc2ccc3ncccc3c2)on1
INS1
  AC50: 3.29 µM (active)

## Cc1cc(Cl)ccc1N=C(S)NC(C)(C)C
[2]
  IC50: > 66 µM (inactive)
[3]
  IC50: > 66 µM (inactive)

## Cc1ccc(C(C)C)c(OCC(O)CN2CCc3ccccc3C2)c1 (stereo not given)
INS1
  AC50: 7.17 µM (active)

## O=[N+]([O-])c1ccc(N2CCCCCC2)c([N+](=O)[O-])c1
[1]
  EC50: > 260 µM (inactive)

## Cn1c(=O)[nH]c(=O)c2c1nc(S)n2Cc1ccccc1
[4]
  IC50: 26.9 µM (active)

## CCOc1cc(NC(=O)c2ccc(OC)cc2)c(OCC)cc1N=C(S)Nc1ccccc1
Cytochrome P450 2C19
  AC50: 2.51 µM (inconclusive)
Cytochrome P450 3A4
  AC50: 14.1 µM (inconclusive)
Cytochrome P450 1A2
  AC50: 7.08 µM (inconclusive)

## COc1cc(CN2CCC(C(=O)N3CCCC(C)C3)CC2)cc(Br)c1O (stereo not given)
[4]
  IC50: 191 µM (active)

## Cc1cc(C)nc(SCNC(=O)c2ccccc2)n1
[2]
  IC50: > 66 µM (inactive)
[3]
  IC50: > 66 µM (inactive)

## Cc1ccc2cc(C=C(C#N)C#N)c(Cl)nc2c1
[2]
  IC50: 28 µM (inactive)
[3]
  IC50: 44.8 µM (inactive)

## Cc1nc(SCC(=O)c2ccccc2)c(C#N)c(-c2ccco2)c1C(=O)NCc1ccco1
[1]
  EC50: 99.7 µM (active)

## COc1cc(-c2nnn(CC#N)n2)ccc1OCc1ccccc1
[1]
  EC50: 90.9 µM (active)

## CC1SC(c2ccc(Cl)cc2)NC1=O (stereo not given)
[1]
  EC50: > 260 µM (inactive)

## CCc1ccc(NC(=O)CSC2=C(C#N)C(c3ccc4c(c3)OCO4)CC(=O)N2)cc1 (stereo not given)
[1]
  EC50: > 260 µM (inactive)

## CN(C)c1ccc(NC(=O)COC(=O)c2ccc3c(c2)OCO3)cc1
[4]
  IC50: 63.3 µM (active)

## CC1CC(=O)N(c2ccc(Br)cc2)C(=O)C1
[1]
  EC50: > 260 µM (inactive)
INS1
  AC50: > 260 µM (inactive)

## O=C(CNS(=O)(=O)c1ccc(Br)s1)NCc1ccccc1
[1]
  EC50: > 260 µM (inactive)

## O=C(O)CCCC(=O)Nc1ccc(C(=O)NCc2cccnc2)cc1
INS1
  AC50: 2.39 µM (active)

## Cc1nc(N)sc1-c1ccccc1
[4]
  IC50: 71.9 µM (active)

## O=C(CCN1CCC2CCC(C2)C1)c1ccccc1 (stereo not given)
[2]
  IC50: > 66 µM (inactive)
[3]
  IC50: > 66 µM (inactive)

## Cc1ccc(-c2ccc(/C=N/NC(=S)Nc3ccccc3)o2)cc1[N+](=O)[O-]
Cytochrome P450 1A2
  AC50: 3.55 µM (inconclusive)
[2]
  IC50: > 66 µM (inactive)
[3]
  IC50: > 66 µM (inactive)

## C/C(=N\NC(=S)Nc1cccc(C)c1)c1cc2ccccc2o1
[5]
  EC50: 3.44 µM (active)
Streptokinase A
  EC50: > 150 µM (not active)
Streptococcus
  EC50: > 150 µM (not active)
[2]
  IC50: > 66 µM (inactive)
[3]
  IC50: > 66 µM (inactive)

## Cc1cccc(NC2=C/C(=N/S(=O)(=O)c3cccs3)c3ccccc3C2=O)c1
[6]
  AC50: 0.835 µM (active)
INS1
  AC50: 0.803 µM (active)

## Cc1nnc(N/N=C/c2cc([N+](=O)[O-])c(N3CCC(C)CC3)cc2N2CCC(C)CC2)n1N
INS1
  AC50: 2.92 µM (active)

## COC(=O)C(Cc1ccc(O)cc1)NC(=O)C(CC(=O)OC(C)(C)C)NC(=O)OC(C)(C)C (stereo not given) (Boc-Asp(OtBu)-Tyr-OMe; configuration not given here)
[1]
  EC50: > 260 µM (inactive)
